Experimental findings from article PMC8157947, “Peptidic boronic acids are potent cell-permeable inhibitors of the malaria parasite egress serine protease SUB1” (Proceedings of the National Academy of Sciences of the …, 2021) are described below.

The target of series [1] is rPfSUB1 (Plasmodium falciparum, UniProt Q8I0V0). The series is described as follows: Progress curve kinetic analysis of rPfSUB1 inhibition. The source says:
Boronic acids form reversible covalent bonds with serine and threonine proteases ([26]). Inhibition is generally time dependent, and the covalent nature of the binding can result in relatively long target occupancy times despite the reversibility of the bond. […] To analyze the kinetic characteristics of the interaction between 3j and rPfSUB1, we used progress curve analysis to continuously monitor rPfSUB1-mediated cleavage of a fluorogenic substrate in the presence of a range of concentrations of 3j. […] Under such conditions, fit of the progress curves by nonlinear regression to Eq. 1 (see Materials and Methods) allows determination of kobs, the pseudo first-order rate constant for onset of inhibition. The kobs is effectively a composite of the on and off rates, so least linear squares regression of the calculated kobs values against inhibitor concentration allows determination of values of the pseudo first-order dissociation rate constant koff and the second-order association rate constant kon for the inhibitor-rPfSUB1 interaction, based respectively on values from the y-intercept and slope.
Progress curves of SERA4st1F-6R12 cleavage by rPfSUB1 were acquired at seven concentrations of inhibitor compound 3j over a period of 35 min, during which fluorescence increases in the absence of inhibitor were linear. The obtained progress curves (four independent replicates) were fit using GraphPad Prism 8.0 software to the following time-dependent inhibition equation: [P] = Vs∗t + ((Vi−Vs)/kobs)∗(1−exp(−kobs∗t)).
In the equation, Vi is the initial velocity, Vs is the final steady-state velocity, and kobs reflects the observed pseudo first-order rate of inactivation. The obtained kobs values were plotted against compound concentration using a linear least squares fit. All statistical analysis was carried out using GraphPad Prism 8.

Series [2] deals with PfSUB1-mediated proteolytic processing of SERA5. The series is described as follows: Western blot of SERA5 processing after washout. It is filed as cell-based, Plasmodium falciparum. The conditions noted are these: 4 h pretreatment then washout. The source says: To seek unambiguous confirmation that PfSUB1 is the intracellular target of compound 3j, we examined the effects of the compound on the PfSUB1-mediated proteolytic processing of the established endogenous PfSUB1 substrate SERA5, an abundant parasite PV protein that only becomes accessible to cleavage upon discharge of PfSUB1 into the PV in the minutes leading up to egress and is then released in a processed form into culture supernatants ([6], [11], [12]). […] It was concluded that compound 3j prevents egress and parasite proliferation through direct inhibition of intracellular PfSUB1.
Short-term egress, invasion, and washout assays were performed essentially as described previously ([27], [28], [42]). […] Clarified culture supernatants were assessed for extent of hemoglobin release (a measure of schizont rupture) by absorption spectroscopy at 415 nm as described previously ([28]) or analyzed by Western blot using antibodies against SERA5 ([7], [11]). To quantify generation of new rings, samples of the cultures were fixed with 4% paraformaldehyde/0.02% glutaraldehyde and stained with SYBR Green I (Life Technologies) and then analyzed by flow cytometry on a BD FACSVerse using BD FACSuite software. Data were analyzed using FlowJo software. All cultures were also routinely analyzed by microscopic examination of Giemsa-stained thin films to visually assess parasite morphology.
In general terms: Immunoblotting shows a protein as a band on a membrane.

Series [3] deals with T1, recombinant PfSUB1 (rPfSUB1) (Plasmodium falciparum, UniProt Q8I0V0).
T1 construct: Chymotrypsin-treated rPfSUB1 (expressed and purified as described previously); made in house
T1 sequence (Q8I0V0 218-688): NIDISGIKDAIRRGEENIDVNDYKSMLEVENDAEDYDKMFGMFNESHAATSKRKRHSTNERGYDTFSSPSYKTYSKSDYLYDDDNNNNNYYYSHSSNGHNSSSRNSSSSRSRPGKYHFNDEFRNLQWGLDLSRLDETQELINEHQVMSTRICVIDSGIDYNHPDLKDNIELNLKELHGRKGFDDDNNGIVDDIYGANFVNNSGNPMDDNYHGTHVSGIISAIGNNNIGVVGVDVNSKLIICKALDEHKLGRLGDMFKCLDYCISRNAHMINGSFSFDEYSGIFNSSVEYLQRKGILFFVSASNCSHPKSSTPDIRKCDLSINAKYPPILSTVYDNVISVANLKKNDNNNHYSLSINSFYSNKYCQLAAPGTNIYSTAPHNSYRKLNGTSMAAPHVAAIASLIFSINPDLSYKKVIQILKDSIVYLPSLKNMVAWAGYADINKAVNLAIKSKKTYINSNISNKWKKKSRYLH
The series is described as follows: rPfSUB1 fluorogenic peptide substrate cleavage inhibition assay. The conditions noted are these: fluorogenic peptide substrate; mean ± SD of at least three measurements; read-out: IC50 (nM) (rPfSUB1). The series is classed as biochemical. From the text: We previously described the development of a fluorescence-based in vitro assay suitable for the evaluation of substrate-based PfSUB1 inhibitors, using recombinant PfSUB1 (rPfSUB1) and fluorogenic peptide substrates based on cleavage sites within endogenous protein substrates of PfSUB1 ([13], [21]). […] This was perhaps unsurprising due to the high molecular mass and polar nature of these compounds, including the presence of a carboxylic acid moiety that was designed to mimic endogenous PfSUB1 protein substrates by interacting with the basic S’ surface of the PfSUB1 active-site cleft ([16]). Collectively, these features likely rendered the compounds poorly membrane penetrant.
Fluorescence of this peptide is quenched by rhodamine dimerization in the intact substrate but increases upon cleavage at the internal Q-D bond. Chymotrypsin-treated rPfSUB1 (expressed and purified as described previously ([16]) was stored at −80 °C as a 228 U/mL stock in 20 mM Tris–HCl pH 8.2, 150 mM NaCl, 10% glycerol, and diluted for use (1:500 or 1:600) in reaction buffer (20 mM Tris–HCl pH 8.2, 150 mM NaCl, 12 mM CaCl2, 25 mM CHAPS). Peptidic boronic acid inhibitors were dissolved in 100% DMSO at 10 or 20 mM, then further diluted in DMSO to generate stock solutions ranging from 500 to 0.01 μM and then used diluted 1:100 in the enzyme reactions. All reactions were performed in wells of white 96-well microwell plates (Nunc); 50 μL diluted rPfSUB1 was preincubated for 5 min with 1 μL each of the serially diluted boronic acid inhibitors, followed by addition of 50 μL substrate solution (0.1 μM final). Subsequent fluorescence increase was continuously monitored using a SpectraMax M5e plate reader and SoftMax Pro-6.3 software, with readings taken every 5 min for 60 min using excitation and emission values of 552 and 580 nm, respectively. […] All experiments were performed in duplicate.

Several values for one entry are separate records, joined by “and”; a condition that tells them apart may be missing. Identical values can stand only once.

Sequence of rPfSUB1 (Q8I0V0 218-688): as above

Turning to `CC(=O)NC(C(=O)NC(C(=O)NCC(=O)NC(C)B(O)O)C(C)C)C1CCCC1` (stereo not drawn) [3j], the affinity in series [1] corresponds to a Ki of 1 nM. Moreover, the “t1/2^off (bound half-life)” value in series [1] (from koff) was ~31 min and ~30 min. Moreover, the koff in series [1] (read-out: koff, dissociation rate constant) stood at 0.00037 s⁻¹. Moreover, the kon in series [1] (read-out: kon, second-order association rate constant) was determined as 360000 M⁻¹ s⁻¹. Also, in series [2], the SERA5 proteolytic processing result was “prevented proteolytic processing and release of SERA5”. Moreover, in series [3], the IC50 was ~5.7 nM and 5.7 nM.

A word on the Ki: it is the dissociation constant of the complex between target and ligand, obtained from inhibition or displacement. Read a high Ki as a looser hold on the target. Broadly, the koff is the rate constant with which the complex falls apart. Broadly, the kon is the rate constant with which the complex forms. What is called IC50 is the midpoint of a concentration-inhibition curve.
